From patent publication US7125564B2, “Water soluble and palatable complexes” (Lavipharm Laboratories, Inc., priority 2001, dated 2006)
≈ marks a conversion by molar mass, not a printed value. Structures can show the parent of a compound that is named as a salt. Blank lines part the entries; values can stand above or below the compound they belong to.

How the values were obtained:
[1] = Water solubility of active agent with and without glycyrrhizin ammonium (24 h rotation, filtration, HPLC); settings: versus control with zero glycyrrhizin, 0.1 M glycyrrhizin ammonium, distilled water, room temperature
[2] = cited from earlier work
[3] = cited from earlier work; for bioavailability: oral administration
[4] = cited from earlier work; remark: listed apart in the source
physchem = settings: thermodynamic from solid

Compound: 5-[-2-ethoxy-5-(4-methylpiperazin-1ylsulphonyl)phenyl]-1-methyl -3-n-propyl-1,6-dihydro-7H-pyrazolo[4,3-d]pyrimidine [sildenafil]
increase of solubility through complexation with glycyrrhizin [1]: 200 fold
increase of solubility through complexation with glycyrrhizin ([1]; listed as sildenfil): more than 200 fold

Compound: CCCc1nn(C)c2c(=O)[nH]c(-c3cc(S(=O)(=O)N4CCN(C)CC4)ccc3OCC)nc12 [Sildenafil citrate]
solubility ([2]; formulated as a regular film tablet): 6000 to 8000 µg/mL
bioavailability [3]: about 40%

Compound: O=C1CC2(CCCC2)CC(=O)N1CCCCN1CCN(c2ncccn2)CC1 [buspirone, 8-[4-[4-(2-pyrimidinyl)1-piperazinyl]butyl]-8-azaspiro(4,5)-decane-7,9-dione]
biological half-life ([4]; in man): 2–11 hours
interindividual variation of the maximum plasma concentration ([4]; oral): up to 10 fold
solubility at 24 h (physchem; aqueous with cosolvent or surfactant or cyclodextrin): 44000 µg/mL (≈ 114000 µM)
solubility at 24 h (physchem; water): 380 µg/mL (≈ 986 µM)

solubility at 24 h (physchem; water): < 1000 µg/mL
Compound: NC(N)=Nc1nc(CSCCC(N)=NS(N)(=O)=O)cs1 [famotidine, N′(aminosulfonyl)-3-[[[2-[(diaminomethylene)amino]-4-thiazolyl]methyl]thio] propanimidamide]
intrinsic water solubility [2]: 278 µg/mL
pKa [2]: 6.8
solubility in ethanol ([2]; ethanol): insoluble
solubility in glacial acetic acid ([2]; glacial acetic acid): freely soluble
solubility in water ([2]; water): very slightly soluble
time to peak plasma concentration ([3]; after oral administration): 1 to 3.5 h
bioavailability [3]: approximately 43%
effect of food on bioavailability ([3]; tablet formulation): unaffected by food

Compound: CC(C)(C)c1ccc(C(O)CCCN2CCC(C(O)(c3ccccc3)c3ccccc3)CC2)cc1 (stereo not drawn) [terfenadine]
fraction of a tablet given by mouth changed to metabolites ([3]; oral tablet, first-pass effect): 99.5%
